Data as given in patent publication US11352350B2, “IRAK degraders and uses thereof” (Kymera Therapeutics, Inc., priority 2018, dated 2022).

Columns and labels:
IRAK4 [1] = target: T1, IRAK4 (Homo sapiens (Human), UniProt Q9NWZ3); test: hPBMC IRAK4 degradation flow assay; format: cell-based; details: hPBMC monocyte
Description: hPBMC IRAK4 degradation flow assay. Frozen PBMCs were thawed into RPMI with 10% FBS and allowed to recover. On the same day as thawed, PBMCs were plated in 96 well plate, 90 uL per well. Compound plates were prepared and a 10 point, 5-fold dilution was performed with a final DMSO concentration of 0.1%. Compound 10 μL per well was added, sealed and incubated at 37° C., 5% C02 for 20 hours (for 4 hour treatment, compounds were prepared and added the following day). […] Cells were spun down and washed two times with PBS/0.5% BSA, aspirated to pellet and placed into −80° C. freezer until further processing for flow. On the flow run day, PBMC plates were thawed and samples were transferred to PCR plates. The pre-perm staining cocktail (CD3 Ax488/CD8 BUV805/CD14 BUV395/CD16/56 BV711/CD19 BV785) was added to samples and incubated for 30 minutes at room temperature. Samples were washed two times and permeabilized with methanol for 10 minutes at 4° C. […] Samples were washed two times with PBS/BSA and run on a BD LSRFortessa. Mononuclear cells are gated by SSCH/FSCH and single cells. Monocytes are then gated through CD14 positive gate and lymphocytes are gated through CD14 negative gate. To determine absolute DC50s and max degradation values, MFI values were normalized to DMSO max and 20 hour 10 μM min control. Twenty hour dose curves were calculated using a 4 parameter logistic regression curve fit, no constraints (Top doses were removed if hook effects were observed and the bottom was constrained to 0).

IRAK4 [2] = target: T1, IRAK4; test: IRAK4 MSD degradation in OCI-LY10; format: cell-based
Procedure, shortened: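 OCI-LY10 cells treated with 8-point 1:3 dilutions (top 1 to 10 μM final) for 4 to 24 h at 37° C. Lysate IRAK4 measured by MSD sandwich immunoassay (2H9 capture, Y279 detection, SULFO-TAG anti-rabbit). DC50 from three-parameter logistic fit.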

OCI-LY10 = test: CTG Cell Viability Assay - OCI-LY10; format: cell-based, human; details: Homo sapiens, OCI-Ly10, 96 h, OCI-LY10, 4 days; read-out: CTG Cell Viability Assay - OCI-LY10: Average external-IC50
Procedure, shortened: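 OCI-LY10 cells exposed to 9-dose, 1:3 dilutions from 10 μM top (0.2% DMSO) for 4 days at 37° C, 5% CO2. Viability by CellTiter-Glo luminescence; IC50 from three-parameter logistic fit.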

[3] = 20 hrs, read-out: IRAK4 degradation in hPBMC monocyte: DC50
[4] = OCI-LY10, 4 hrs, read-out: IRAK4 MSD degradation in OCI-LY10 at 4 hrs: DC50
[5] = 20 hr, flow assay, read-out: IRAK4 degradation in hPBMC monocyte at 20 hr: Average external Abs DC50

T1 sequence (Q9NWZ3 whole entry): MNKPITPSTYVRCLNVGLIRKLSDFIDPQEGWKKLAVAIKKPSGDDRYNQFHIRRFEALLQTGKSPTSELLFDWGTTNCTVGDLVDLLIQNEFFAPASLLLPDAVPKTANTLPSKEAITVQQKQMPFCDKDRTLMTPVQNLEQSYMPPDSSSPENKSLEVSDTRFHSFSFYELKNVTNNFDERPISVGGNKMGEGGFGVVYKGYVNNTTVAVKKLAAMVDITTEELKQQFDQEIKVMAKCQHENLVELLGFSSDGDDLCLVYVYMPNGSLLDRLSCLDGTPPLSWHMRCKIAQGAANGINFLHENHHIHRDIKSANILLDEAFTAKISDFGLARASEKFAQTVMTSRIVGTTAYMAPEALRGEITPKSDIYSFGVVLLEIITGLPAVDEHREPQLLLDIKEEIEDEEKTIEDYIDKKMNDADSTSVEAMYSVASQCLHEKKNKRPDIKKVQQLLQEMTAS

Compound | DC50 (IRAK4 [1]; [3]) [nM] | DC50 (IRAK4 [2]; [4]) [nM] | other results
C[C@@H](CCc1cccc2c1n(C)c(=O)n2C1CCC(=O)NC1=O)OC1CCN(C[C@H]2CC[C@H](n3cc(NC(=O)c4cnn5ccc(N6C[C@H]7C[C@@H]6CO7)cc45)c(C(F)F)n3)CC2)CC1 (stereo partly drawn) [I-545] | < 10 | < 10 | 
C[C@@H]1CN(c2ccn3ncc(C(=O)Nc4cn([C@H]5CC[C@H](CN6CCC(OCC#Cc7cccc8c7n(C)c(=O)n8C7CCC(=O)NC7=O)CC6)CC5)nc4C(F)F)c3n2)C[C@@H](C)O1 (stereo partly drawn) [I-527] | < 10 | 10 to 100 | 
Cn1c(=O)n(C2CCC(=O)NC2=O)c2cccc(CCCOC3CCN(CCCCn4ncc(NC(=O)c5cnn6ccc(N7CCOCC7)nc56)c4C(F)F)CC3)c21 (stereo not drawn) [I-488] | 100 to 1000 | 100 to 1000 | IC50 (OCI-LY10): > 1000 nM
Cn1c(=O)n(C2CCC(=O)NC2=O)c2cccc(C#CCOC3CCN(C[C@H]4CC[C@H](n5cc(NC(=O)c6cnn7ccc(N8CCOC(C)(C)C8)nc67)c(C(F)F)n5)CC4)CC3)c21 (stereo partly drawn) [I-533] | < 10 | 10 to 100 | 
Cn1c(=O)n(C2CCC(=O)NC2=O)c2cccc(C#CCOC3CCN(C[C@H]4CC[C@H](n5cc(NC(=O)c6cnn7ccc(N8CCOC9(CCC9)C8)nc67)c(C(F)F)n5)CC4)CC3)c21 (stereo partly drawn) [I-541] | < 10 | 10 to 100 | 
CC(C)(O)c1cc2nn([C@H]3CC[C@H](CN4CCC(COCCCNc5cccc6c5C(=O)N(C5CCC(=O)NC5=O)C6=O)CC4)CC3)cc2cc1NC(=O)c1cccc(C(F)(F)F)n1 (stereo partly drawn) [I-376] |  |  | DC50 (IRAK4 [1]; [5]): < 10 nM; DC50 (IRAK4 [2]; OCI-LY10, 4 hrs, MSD, read-out: IRAK4 MSD degradation in OCI-LY10 at 4 hrs: Average external-Abs DC50): 10 to 100 nM; DC50 (IRAK4 [2]; OCI-LY10, 24 hrs, MSD, read-out: IRAK4 MSD degradation in OCI-LY10 at 24 hrs: Average external-Abs DC50): 10 to 100 nM; IC50 (OCI-LY10): 100 to 500 nM
Cn1c(=O)n(C2CCC(=O)NC2=O)c2cccc(C(=O)N3CCC(OC[C@H]4CC[C@H](n5cc(NC(=O)c6cnn7ccc(N8C[C@H]9C[C@@H]8CO9)nc67)c(C(F)F)n5)CC4)CC3)c21 (stereo partly drawn) [I-427] |  |  | DC50 (IRAK4 [1]; [5]): 100 to 1000 nM
CN(CCCC#Cc1cccc2c1n(C)c(=O)n2C1CCC(=O)NC1=O)C[C@H]1CC[C@H](n2cc(NC(=O)c3cnn4ccc(N5C[C@H]6C[C@@H]5CO6)nc34)c(C(F)F)n2)CC1 (stereo partly drawn) [I-550, 5-((1R,4R)-2-oxa-5-azabicyclo[2.2.1]heptan-5-yl)-N-(3-(difluoromethyl)-1-((1r,4R)-4-(((5-(1-(2,6-dioxopiperidin-3-yl)-3-methyl-2-oxo-2,3-dihydro-1H-benzo [d]imidazol-4-yl)pent-4-yn-1-yl)(methyl)amino)methyl)cyclohexyl)-1H-pyrazol-4-yl)pyrazolo[1,5-a] pyrimidine-3-carboxamide] | < 10 | 10 to 100 | 
Cn1c(=O)n(C2CCC(=O)NC2=O)c2cccc(CCCOC3CCN(C[C@H]4CC[C@H](n5ncc(NC(=O)c6cnn7ccc(N8CCOCC8)nc67)c5C(F)F)CC4)CC3)c21 (stereo partly drawn) [I-468] | 100 to 1000 | 100 to 1000 | 
Cn1c(=O)n(C2CCC(=O)NC2=O)c2cccc(CCCOC3CCN(C[C@H]4CC[C@H](n5cc(NC(=O)c6cnn7ccc(N8CCOC9(CCC9)C8)nc67)c(C(F)F)n5)CC4)CC3)c21 (stereo partly drawn) [I-542] | < 10 | 10 to 100 | 
Cn1c(=O)n(C2CCC(=O)NC2=O)c2cccc(CCCC3CCN(C[C@H]4CC[C@H](C5N=C(NC(=O)c6cnn7ccc(N8C[C@H]9CC[C@@H](C8)O9)nc67)C(C(F)F)=N5)CC4)CC3)c21 (stereo partly drawn) [I-535] | < 10 | < 10 | 
Cn1c(=O)n(C2CCC(=O)NC2=O)c2cccc(CCCOCCCC(CNC[C@H]3CC[C@H](n4cc(NC(=O)c5cnn6ccc(N7C[C@H]8C[C@@H]7CO8)nc56)c(C(F)F)n4)CC3)C(=O)O)c21 (stereo partly drawn) [I-470] | 100 to 1000 | 100 to 1000 | 
Cn1c(=O)n(C2CCC(=O)NC2=O)c2cccc(C#CCC3CCN(C[C@H]4CC[C@H](C5N=C(NC(=O)c6cnn7ccc(N8C[C@H]9CC[C@@H](C8)O9)nc67)C(C(F)F)=N5)CC4)CC3)c21 (stereo partly drawn) [I-534] | < 10 | 10 to 100 | 
Cn1c(=O)n(C2CCC(=O)NC2=O)c2cccc(CN3CC4(CCN(C(=O)[C@H]5CC[C@H](n6cc(NC(=O)c7cnn8ccc(N9C[C@H]%10C[C@@H]9CO%10)nc78)c(C(F)F)n6)CC5)CC4)C3)c21 (stereo partly drawn) [I-429] |  |  | DC50 (IRAK4 [1]; [5]): < 10 nM
CN(CCCC#Cc1ccc2c(c1)n(C)c(=O)n2C1CCC(=O)NC1=O)C[C@H]1CC[C@H](n2cc(NC(=O)c3cnn4ccc(N5C[C@H]6C[C@@H]5CO6)nc34)c(C(F)F)n2)CC1 (stereo partly drawn) [I-546, 5-((1R,4R)-2-oxa-5-azabicyclo[2.2.1]heptan-5-yl)-N-(3-(difluoromethyl)-1-((1r,4R)-4-(((5-(1-(2,6-dioxopiperidin-3-yl)-3-methyl-2-oxo-2,3-dihydro-1H-benzo [d]imidazol-5-yl)pent-4-yn-1-yl)(methyl)amino)methyl)cyclohexyl)-1H-pyrazol-4-yl)pyrazolo[1,5-a] pyrimidine-3-carboxamide] | 10 to 100 | 100 to 1000 | 
CN1C(=O)C(C2CCC(=O)NC2=O)c2cc(C#CCOC3CCN(C[C@H]4CC[C@H](C5N=C(NC(=O)c6cnn7ccc(N8C[C@H]9C[C@@H]8CO9)nc67)C(C(F)F)=N5)CC4)CC3)ccc21 (stereo partly drawn) [I-548] | 100 to 1000 | 100 to 1000 | 
C[C@@H]1CC(OCCc2cccc3c2n(C)c(=O)n3C2CCC(=O)NC2=O)C[C@H](C)N1C[C@H]1CC[C@H](n2cc(NC(=O)c3cnn4ccc(N5C[C@H]6C[C@@H]5CO6)nc34)c(C(F)F)n2)CC1 (stereo partly drawn) [I-558] | < 10 |  | IC50 (OCI-LY10): > 1000 nM
Cn1c(=O)n(C2CCC(=O)NC2=O)c2cccc(CCCC3CCN(C[C@H]4CC[C@H](C5N=C(NC(=O)c6cnn7ccc(N8CCOC9(CCC9)C8)nc67)C(C(F)F)=N5)CC4)CC3)c21 (stereo partly drawn) [I-538] | < 10 | 10 to 100 | 
C[C@H]1CN(c2ccn3ncc(C(=O)Nc4cn([C@H]5CC[C@H](CN6CCC(OCC#Cc7cccc8c7n(C)c(=O)n8C7CCC(=O)NC7=O)CC6)CC5)nc4C(F)F)c3n2)C[C@H](C)O1 (stereo partly drawn) [I-536] | < 10 | 10 to 100 | 
C[C@@H]1CN(c2ccn3ncc(C(=O)Nc4cn([C@H]5CC[C@H](CN6CCC(OCC#Cc7cccc8c7n(C)c(=O)n8C7CCC(=O)NC7=O)CC6)CC5)nc4C(F)F)c3n2)C[C@H](C)O1 (stereo partly drawn) [I-531] | < 10 | 10 to 100 | 
C[C@H](/C=C/c1cccc2c1n(C)c(=O)n2C1CCC(=O)NC1=O)OC1CCN(C[C@H]2CC[C@H](n3cc(NC(=O)c4cnn5ccc(N6C[C@H]7C[C@@H]6CO7)nc45)c(C(F)F)n3)CC2)CC1 (stereo partly drawn) [I-559] | < 10 |  | IC50 (OCI-LY10): > 1000 nM
Cn1c(=O)n(C2CCC(=O)NC2=O)c2cccc(CCCCC3CCN(Cc4ccc(-n5cc(NC(=O)c6cnn7ccc(N8C[C@H]9C[C@@H]8CO9)nc67)c(C(F)F)n5)cc4)CC3)c21 (stereo partly drawn) [I-436] |  |  | DC50 (IRAK4 [1]; [5]): 100 to 1000 nM
Cn1c(=O)n(C2CCC(=O)NC2=O)c2cccc(CCCN3CCC4(CC3)CCN(C(=O)C3CCC(n5cc(NC(=O)c6cnn7ccc(N8C[C@H]9C[C@@H]8CO9)nc67)c(C(F)F)n5)CC3)CC4)c21 (stereo partly drawn) [I-435] |  |  | DC50 (IRAK4 [1]; [5]): < 10 nM
Cn1c(=O)n(C2CCC(=O)NC2=O)c2cccc(CCCOC3CCN(C[C@H]4CC[C@H](n5cc(NC(=O)c6cnn7ccc(N8CCOC(C)(C)C8)nc67)c(C(F)F)n5)CC4)CC3)c21 (stereo partly drawn) [I-539] | < 10 | 10 to 100 | 
CN(C[C@H]1OC[C@H](n2cc(NC(=O)c3cnn4ccc(N5C[C@H]6C[C@@H]5CO6)nc34)c(C(F)F)n2)CO1)C1CCN(Cc2cccc3c2n(C)c(=O)n3C2CCC(=O)NC2=O)CC1 (stereo partly drawn) [I-507, N-[3-(difluoromethyl)-1-[2-[[[1-[[1-(2,6-dioxo-3-piperidyl)-3-methyl-2-oxo-benzimidazol-4-yl]methyl]-4-piperidyl]-methyl-amino]methyl]-1,3-dioxan-5-yl]pyrazol-4-yl]-5-[(1R,4R)-2-oxa-5-azabicyclo [2.2.1]heptan-5-yl] pyrazolo[1,5-a] pyrimidine-3-carboxamide] | < 10 |  | 
